The record followed here is ChEMBL document CHEMBL1132866, “Synthesis of glycolipid analogues that disrupt binding of HIV-1 gp120 to galactosylceramide” (Bioorg Med Chem Lett, 2000).

This assay addresses Envelope glycoprotein gp160 (Human immunodeficiency virus type 1 group M subtype B (isolate HXB2)(HIV-1), UniProt P04578). Briefly: Binding affinity towards HIV glycoprotein gp120.

In the case of `CCCCCCCCCCCCC/C=C/[C@@H](O)[C@H](CO[C@@H]1O[C@@H](CO)[C@H](O)[C@H](O)[C@@H]1O)NC(=O)OCCCCCCCCCCCCCCCCCCCCCCC`, binding was put at a Kd of 11.4 nM.
